In patent US9855268B2, “Triazolo[4,5-d]pyrimidine derivatives” (Merck Patent GmbH, priority 2013, dated 2018):

What follows are compounds tested against GCN2 (Homo sapiens, UniProt Q9P2K8) (assay: GCN2 enzyme assay (TR-FRET Lanthascreen, GFP-eIF2alpha phosphorylation)). Conditions: 10 μM ATP, 80 nM GFP-eIF2a, 30 nM GCN2.
Assay type: biochemical
From the text: GCN2: Assay Principle & Conditions
This assay can quantificate the activity of the serin kinase GCN2 (general control non-derepressible-2).
This kinase is involved in the stress metabolism of cells. It is activated upon starvation (amino acid depletion). Its natural substrate is eIF2a (eukaryotic initiation factor 2 alpha subunit), a translation factor, which gets activated (phosphorylated) by GCN2 in case of an amino acid bottleneck in the cells. This in turn leads to a halt of the protein synthesis. Inhibition of GCN2 results in stopping this mechanism: The cell can not stop protein production upon “starvation” stress.
The assay is run in two steps: the enzymatic reaction and the detection step. In the first step GCN2 is incubated with 10 μM ATP and 80 nM of the GFP-labelled substrate eIF2alpha at room temperature.
The enzymatic reaction is stopped by addition of EDTA. The amount of phosphorylated eIF2alpha is determined by TR-FRET (Lanthascreen): A complex is formed consisting of antibody and GFP labelled phospho-eIF2a, which allows a FRET upon exitation at 340 nm.
Final Concentrations in the Enzymatic Reaction

GCN2, sequence (Q9P2K8 whole entry, species assumed): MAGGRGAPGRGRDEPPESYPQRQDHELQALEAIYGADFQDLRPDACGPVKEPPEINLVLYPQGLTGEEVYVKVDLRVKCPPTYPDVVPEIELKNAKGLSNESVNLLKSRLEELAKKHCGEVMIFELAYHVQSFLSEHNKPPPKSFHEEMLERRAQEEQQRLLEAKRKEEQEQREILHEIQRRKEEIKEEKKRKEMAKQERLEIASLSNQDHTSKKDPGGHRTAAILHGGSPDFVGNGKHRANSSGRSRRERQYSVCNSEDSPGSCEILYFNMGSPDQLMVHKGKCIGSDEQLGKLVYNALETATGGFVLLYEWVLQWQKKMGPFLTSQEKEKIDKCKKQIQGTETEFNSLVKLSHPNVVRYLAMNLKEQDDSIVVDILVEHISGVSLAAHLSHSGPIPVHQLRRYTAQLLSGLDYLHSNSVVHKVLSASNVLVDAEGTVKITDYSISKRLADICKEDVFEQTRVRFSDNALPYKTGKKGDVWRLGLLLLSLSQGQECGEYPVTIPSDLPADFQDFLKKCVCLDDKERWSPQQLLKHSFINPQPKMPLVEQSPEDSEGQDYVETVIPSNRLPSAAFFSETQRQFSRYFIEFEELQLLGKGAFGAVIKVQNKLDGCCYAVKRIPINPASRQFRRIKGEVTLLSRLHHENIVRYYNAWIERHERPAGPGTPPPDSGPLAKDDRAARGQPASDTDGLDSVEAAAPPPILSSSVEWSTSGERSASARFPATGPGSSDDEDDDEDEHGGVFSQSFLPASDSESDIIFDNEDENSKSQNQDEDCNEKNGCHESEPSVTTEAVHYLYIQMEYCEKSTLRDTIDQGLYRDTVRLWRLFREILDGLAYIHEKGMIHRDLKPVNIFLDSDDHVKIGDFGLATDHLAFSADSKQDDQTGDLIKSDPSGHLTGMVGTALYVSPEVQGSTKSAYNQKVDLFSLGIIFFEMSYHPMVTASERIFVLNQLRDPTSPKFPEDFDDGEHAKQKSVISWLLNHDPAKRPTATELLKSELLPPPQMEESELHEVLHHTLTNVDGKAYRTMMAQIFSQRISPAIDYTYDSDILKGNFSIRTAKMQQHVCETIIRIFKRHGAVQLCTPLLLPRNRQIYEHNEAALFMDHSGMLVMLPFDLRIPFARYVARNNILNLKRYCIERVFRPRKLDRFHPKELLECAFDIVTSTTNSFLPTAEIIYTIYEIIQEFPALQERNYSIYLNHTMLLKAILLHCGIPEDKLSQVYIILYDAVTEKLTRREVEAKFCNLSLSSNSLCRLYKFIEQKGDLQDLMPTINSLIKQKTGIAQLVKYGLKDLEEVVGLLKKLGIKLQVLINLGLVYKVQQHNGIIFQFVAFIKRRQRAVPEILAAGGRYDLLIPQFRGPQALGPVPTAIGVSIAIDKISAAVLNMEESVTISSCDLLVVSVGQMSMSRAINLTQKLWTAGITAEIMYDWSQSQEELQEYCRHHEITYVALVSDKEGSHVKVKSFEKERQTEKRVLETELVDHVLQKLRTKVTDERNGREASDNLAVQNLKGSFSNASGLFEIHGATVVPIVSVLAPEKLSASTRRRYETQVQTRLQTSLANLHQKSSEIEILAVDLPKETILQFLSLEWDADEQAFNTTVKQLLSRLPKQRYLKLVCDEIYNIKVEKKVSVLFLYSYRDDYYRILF

Compared with `N[C@H]1CC[C@H](Nc2ncc3nnn(-c4ccc(N5CCOCC5)cn4)c3n2)CC1` [A96, trans-N-[3-(5-morpholin-4-yl-pyridin-2-yl)-3H-[1,2,3]triazolo[4,5-d]pyrimidin-5-yl]-cyclohexane-1,4-diamine], `N[C@H]1CC[C@H](Nc2ncc3nnn(-c4ccc(OCCN5CCOCC5)cc4)c3n2)CC1` [A95, trans-N-{3-[4-(2-morpholin-4-yl-ethoxy)-phenyl]-3H-[1,2,3]triazolo[4,5-d]pyrimidin-5-yl}-cyclohexane-1,4-diamine] is lower in IC50: 1000 to 5000 nM for the first, under 1000 nM for the second. The second is the more potent here.

First: COCCn1cc(-n2nnc3cnc(N[C@@H]4CCC[C@@H](C(N)=O)C4)nc32)cn1 (relative stereo) [A165, (trans)-3-{3-[1-(2-methoxy-ethyl)-1H-pyrazol-4-yl]-3H-[1,2,3]triazolo[4,5-d]pyrimidin-5-ylamino}-cyclohexanecarboxylic acid amide]
Second: NC(=O)[C@@H]1CC[C@@H](Nc2ncc3nnn(-c4ccc(-c5cnn(CCO)c5)cn4)c3n2)C1 [A261, (1R,3R)-3-(3-{5-[1-(2-hydroxy-ethyl)-1H-pyrazol-4-yl]-pyridin-2-yl}-3H-[1,2,3]triazolo[4,5-d]pyrimidin-5-ylamino)-cyclopentanecarboxylic acid amide]
The IC50 of the first is higher: 1000 to 5000 nM for the first, under 1000 nM for the second.

`COc1ccc(-n2nnc3cnc(N[C@@H]4CC[C@@H](N5CCCC5=O)C4)nc32)cc1` [A291, 1-{(1R,3R)-3-[3-(4-methoxy-phenyl)-3H-[1,2,3]triazolo[4,5-d]pyrimidin-5-ylamino]-cyclopentyl}-pyrrolidin-2-one] and `COc1ccc(-n2nnc3cnc(N[C@@H]4CC[C@H](C(=O)O)C4)nc32)cc1` [A79, (1S,3R)-3-[3-(4-methoxy-phenyl)-3H-[1,2,3]triazolo[4,5-d]pyrimidin-5-ylamino]-cyclopentanecarboxylic acid] cannot be ordered by IC50: under 1000 nM for the first, under 1000 nM for the second.

First: COCCOc1ccc(-n2nnc3cnc(NCc4cnn(C)c4)nc32)cc1 [B6, {3-[4-(2-methoxy-ethoxy)-phenyl]-3H-[1,2,3]triazolo[4,5-d]pyrimidin-5-yl}-(1-methyl-1H-pyrazol-4-ylmethyl)-amine]
Second: CCNc1ncc2nnn(-c3ccc(OC)cc3)c2n1 [A16, ethyl-[3-(4-methoxy-phenyl)-3H-[1,2,3]triazolo[4,5-d]pyrimidin-5-yl]-amine]
The IC50 of the first is higher: 1000 to 5000 nM for the first, under 1000 nM for the second. The second is the more potent here.

`COc1ccc(-n2nnc3cnc(N[C@H]4C[C@@H](NC(=O)OC(C)(C)C)C4)nc32)cc1` [A30, {cis-3-[3-(4-methoxy-phenyl)-3H-[1,2,3]triazolo[4,5-d]pyrimidin-5-ylamino]-cyclobutyl}-carbamic acid tert-butyl ester] and `COc1ccc(-n2nnc3cnc(NC4CCCN(C(C)=O)C4)nc32)cc1` (centres unmarked) [A42, 1-{3-[3-(4-methoxy-phenyl)-3H-[1,2,3]triazolo[4,5-d]pyrimidin-5-ylamino]-piperidin-1-yl}-ethanone] cannot be ordered by IC50: under 1000 nM for the first, under 1000 nM for the second.

`Cc1ccc2cc(-n3nnc4cnc(N[C@@H]5CCN(C(N)=O)C5)nc43)ccc2n1` [A284, (R)-3-[3-(2-methyl-quinolin-6-yl)-3H-[1,2,3]triazolo[4,5-d]pyrimidin-5-ylamino]-pyrrolidine-1-carboxylic acid amide] and `COc1ccc(-n2nnc3cnc(NC4CCN(C(=O)CN(C)C)CC4)nc32)cc1` [A48, 2-dimethylamino-1-{4-[3-(4-methoxy-phenyl)-3H-[1,2,3]triazolo-[4,5-d]pyrimidin-5-ylamino]-piperidin-1-yl}-ethanone] cannot be ordered by IC50: under 1000 nM for the first, under 1000 nM for the second.

`COc1ccc(-n2nnc3cnc(N[C@H]4CC[C@H](O)CC4)nc32)cc1` [A6, trans-4-[3-(4-methoxy-phenyl)-3H-[1,2,3]triazolo[4,5-d]pyrimidin-5-ylamino]-cyclohexanol] and `CC(C)(O)c1ccc(-n2nnc3cnc(N[C@@H]4CC[C@@H](O)C4)nc32)cc1` (relative stereo) [A290, (trans)-3-{3-[4-(1-Hydroxy-1-methyl-ethyl)-phenyl]-3H-[1,2,3]triazolo[4,5-d]pyrimidin-5-ylamino}-cyclopentanol] cannot be ordered by IC50: under 1000 nM for the first, under 1000 nM for the second.
